Assay results as given in US20210070748A1, “INHIBITORS OF BRUTONS TYROSINE KINASE” (Pharmacyclics LLC, priority 2015, published 2021).

Legend:
Assay type in all cases: biochemical
ITK = target: T1, ITK (Homo sapiens, UniProt Q08881); assay: Inhibition of a panel of kinases, in vitro HotSpot kinase assay: ITK; conditions: Table 15, C compounds; 1 μM ATP
T1 sequence (Q08881 1-620): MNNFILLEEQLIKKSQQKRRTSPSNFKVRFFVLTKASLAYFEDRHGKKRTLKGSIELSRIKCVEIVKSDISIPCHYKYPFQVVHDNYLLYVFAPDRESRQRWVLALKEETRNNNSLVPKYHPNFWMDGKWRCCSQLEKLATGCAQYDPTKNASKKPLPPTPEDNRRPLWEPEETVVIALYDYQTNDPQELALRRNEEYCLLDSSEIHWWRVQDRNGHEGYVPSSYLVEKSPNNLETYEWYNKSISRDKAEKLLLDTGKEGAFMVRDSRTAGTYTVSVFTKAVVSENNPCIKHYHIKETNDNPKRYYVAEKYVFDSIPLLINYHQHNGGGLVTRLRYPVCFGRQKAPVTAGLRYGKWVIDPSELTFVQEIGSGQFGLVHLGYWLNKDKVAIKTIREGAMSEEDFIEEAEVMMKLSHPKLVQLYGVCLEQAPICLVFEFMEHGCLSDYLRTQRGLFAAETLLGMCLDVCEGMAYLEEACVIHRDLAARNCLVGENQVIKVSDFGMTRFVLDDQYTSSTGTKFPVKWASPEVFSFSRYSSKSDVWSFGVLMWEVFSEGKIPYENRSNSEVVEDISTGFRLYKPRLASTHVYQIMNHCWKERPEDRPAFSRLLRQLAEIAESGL
Description: (§1) The degree of inhibition of a panel of kinases is determined using the in vitro HotSpot kinase assay (purified enzymes, ^33P-ATP, an appropriate substrate and 1 μM ATP).

TEC = target: T2, TEC (Homo sapiens, UniProt P42680); assay: Inhibition of a panel of kinases, in vitro HotSpot kinase assay: TEC; conditions: Table 15, C compounds; 1 μM ATP
T2 sequence (P42680 1-631): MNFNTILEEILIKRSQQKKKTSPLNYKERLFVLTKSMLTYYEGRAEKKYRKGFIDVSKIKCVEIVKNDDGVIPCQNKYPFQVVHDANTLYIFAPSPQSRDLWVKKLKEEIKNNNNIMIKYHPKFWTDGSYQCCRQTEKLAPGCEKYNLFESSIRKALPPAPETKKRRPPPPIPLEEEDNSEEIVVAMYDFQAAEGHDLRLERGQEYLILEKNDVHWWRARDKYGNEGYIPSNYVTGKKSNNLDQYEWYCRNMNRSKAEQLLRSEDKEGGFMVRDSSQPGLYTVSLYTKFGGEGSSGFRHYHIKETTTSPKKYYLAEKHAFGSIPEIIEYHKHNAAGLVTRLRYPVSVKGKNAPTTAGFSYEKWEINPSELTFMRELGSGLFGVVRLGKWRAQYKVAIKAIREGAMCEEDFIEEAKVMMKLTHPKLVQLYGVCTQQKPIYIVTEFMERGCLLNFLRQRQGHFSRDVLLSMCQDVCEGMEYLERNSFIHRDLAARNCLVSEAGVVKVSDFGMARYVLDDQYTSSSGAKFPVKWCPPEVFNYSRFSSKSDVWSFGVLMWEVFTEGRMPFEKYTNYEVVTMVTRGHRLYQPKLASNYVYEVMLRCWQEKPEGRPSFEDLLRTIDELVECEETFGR
Description: as §1

TXK = target: T3, TXK (Homo sapiens, UniProt P42681); assay: Inhibition of a panel of kinases, in vitro HotSpot kinase assay: TXK; conditions: Table 15, C compounds; 1 μM ATP
T3 sequence (P42681 1-527): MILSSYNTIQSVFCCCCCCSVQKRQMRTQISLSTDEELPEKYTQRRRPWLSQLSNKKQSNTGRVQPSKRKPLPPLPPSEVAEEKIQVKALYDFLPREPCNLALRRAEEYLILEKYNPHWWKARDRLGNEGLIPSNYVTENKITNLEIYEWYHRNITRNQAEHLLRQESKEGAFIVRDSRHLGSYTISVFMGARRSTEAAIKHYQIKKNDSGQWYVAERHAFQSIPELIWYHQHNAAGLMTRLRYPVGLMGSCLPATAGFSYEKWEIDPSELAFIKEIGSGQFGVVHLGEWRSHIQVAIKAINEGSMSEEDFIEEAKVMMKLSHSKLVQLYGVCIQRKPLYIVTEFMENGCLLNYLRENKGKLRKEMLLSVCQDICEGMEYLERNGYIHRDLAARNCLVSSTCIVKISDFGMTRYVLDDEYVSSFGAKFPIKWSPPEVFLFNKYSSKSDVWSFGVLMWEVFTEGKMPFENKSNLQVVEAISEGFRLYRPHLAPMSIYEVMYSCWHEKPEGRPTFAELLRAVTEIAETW
Description: as §1

BTK-WT = target: T4, BTK-WT (Homo sapiens, UniProt Q06187); assay: Btk in vitro inhibitory activity (one of Method A TR-FRET, Method B electrophoretic mobility shift, Method C radiometric filter binding); conditions: Table 15, C compounds; read-out: IC50 BTK-WT
T4 construct: purified from insect cells as a full-length construct containing an N-terminal 6X-His tag; His6 (N); made in house; host or cells: insect cells (baculovirus Sf21 in Method B)
T4 sequence (Q06187 whole entry): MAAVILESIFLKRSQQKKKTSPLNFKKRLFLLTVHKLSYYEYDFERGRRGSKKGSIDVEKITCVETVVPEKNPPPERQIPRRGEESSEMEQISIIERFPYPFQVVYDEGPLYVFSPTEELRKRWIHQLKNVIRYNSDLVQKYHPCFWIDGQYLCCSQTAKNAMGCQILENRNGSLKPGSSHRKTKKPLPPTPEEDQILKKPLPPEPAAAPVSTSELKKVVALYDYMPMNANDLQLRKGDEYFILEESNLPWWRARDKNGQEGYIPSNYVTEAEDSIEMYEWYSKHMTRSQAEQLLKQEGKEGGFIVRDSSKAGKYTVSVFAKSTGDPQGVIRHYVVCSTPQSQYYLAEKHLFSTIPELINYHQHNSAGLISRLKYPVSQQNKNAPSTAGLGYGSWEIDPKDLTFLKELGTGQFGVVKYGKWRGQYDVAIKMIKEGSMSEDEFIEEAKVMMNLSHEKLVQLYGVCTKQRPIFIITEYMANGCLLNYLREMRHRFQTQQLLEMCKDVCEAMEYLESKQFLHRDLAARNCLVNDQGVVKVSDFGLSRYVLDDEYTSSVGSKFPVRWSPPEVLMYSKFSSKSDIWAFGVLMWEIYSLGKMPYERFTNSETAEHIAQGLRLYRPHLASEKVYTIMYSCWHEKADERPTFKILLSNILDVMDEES

Row | SMILES | IC50 (ITK) [nM] | IC50 (TEC) [nM] | IC50 (TXK) [nM] | IC50 (BTK-WT) [nM]
1 | C=CC(=O)N1CCC[C@@H](Nc2nnc(C(N)=O)c(Nc3ccc(C)cc3)n2)C1 [Example C-54, (R)-3-(1-acryloylpiperidin-3-ylamino)-5-(p-tolylamino)-1,2,4-triazine-6-carboxamide] | 10 to 100 | ≤ 10 | ≤ 10 | ≤ 10
2 | C=CC(=O)N1CCC[C@@H](Nc2nnc(C(N)=O)c(Nc3ccc(C4CCN(C5CCCC5)CC4)cc3)n2)C1 [Example C-60, (R)-3-(1-acryloylpiperidin-3-ylamino)-5-(4-(1-cyclopentylpiperidin-4-yl)phenylamino)-1,2,4-triazine-6-carboxamide] | ≤ 10 | ≤ 10 | ≤ 10 | ≤ 10
3 | C=CC(=O)N1CC[C@@H](N(C)c2cnc(C(N)=O)c(Nc3ccc(C4(C)CCN(C5CC5)CC4)cc3)n2)C1 [Example C-65, (R)-5-((1-acryloylpyrrolidin-3-yl)(methyl)amino)-3-(4-(1-cyclopropyl-4-methylpiperidin-4-yl)phenylamino) pyrazine-2-carboxamide] | ≤ 10 | ≤ 10 | ≤ 10 | ≤ 10
4 | C=CC(=O)N1CC[C@@H](N(C)c2cnc(C(N)=O)c(Nc3ccc(C4(C)CCN(C5CCCC5)CC4)cc3)n2)C1 [Example C-67, (R)-5-((1-acryloylpyrrolidin-3-yl)(methyl)amino)-3-(4-(1-cyclopentyl-4-methylpiperidin-4-yl)phenylamino)pyrazine-2-carboxamide] | ≤ 10 | ≤ 10 | > 10000 | ≤ 10
5 | C=CC(=O)N1CCC[C@@H](Nc2nnc(C(N)=O)c(Nc3cncc(F)c3)n2)C1 [Example C-69, (R)-3-(1-acryloylpiperidin-3-ylamino)-5-(5-fluoropyridin-3-ylamino)-1,2,4-triazine-6-carboxamide] | 100 to 1000 | ≤ 10 | ≤ 10 | ≤ 10
6 | C=CC(=O)N1CCC[C@@H](Nc2nnc(C(N)=O)c(Nc3cnc4ccccc4c3)n2)C1 [Example C-70, (R)-3-(1-acryloylpiperidin-3-ylamino)-5-(quinolin-3-ylamino)-1,2,4-triazine-6-carboxamide] | 10 to 100 | ≤ 10 | ≤ 10 | ≤ 10
7 | C=CC(=O)N1CCC[C@@H](Nc2nnc(C(N)=O)c(Nc3ccc(-n4nccn4)cc3)n2)C1 [Example C-81, (R)-5-(4-(2H-1,2,3-triazol-2-yl)phenylamino)-3-(1-acryloylpiperidin-3-ylamino)-1,2,4-triazine-6-carboxamide] | 10 to 100 | ≤ 10 | ≤ 10 | ≤ 10
8 | C=CC(=O)N1CCC[C@@H](Nc2nnc(C(N)=O)c(Nc3ccc4ncccc4c3)n2)C1 [Example C-82, (R)-3-(1-acryloylpiperidin-3-ylamino)-5-(quinolin-6-ylamino)-1,2,4-triazine-6-carboxamide] | ≤ 10 | ≤ 10 | ≤ 10 | ≤ 10

Next, values leading:

Row | IC50 (ITK) [nM] | IC50 (TEC) [nM] | IC50 (TXK) [nM] | IC50 (BTK-WT) [nM] | SMILES
9 | 10 to 100 | ≤ 10 | ≤ 10 | ≤ 10 | C=CC(=O)N1CCC[C@@H](Nc2nnc(C(N)=O)c(Nc3ccc(-c4ncccn4)cc3)n2)C1 [Example C-52, (R)-3-(1-acryloylpiperidin-3-ylamino)-5-(4-(pyrimidin-2-yl)phenylamino)-1,2,4-triazine-6-carboxamide]
10 | 10 to 100 | ≤ 10 | ≤ 10 | ≤ 10 | C=CC(=O)N1CCC[C@@H](Nc2nnc(C(N)=O)c(Nc3ccc(C(C)C)c(C)c3)n2)C1 [Example C-53, (R)-3-(1-acryloylpiperidin-3-ylamino)-5-(4-isopropyl-3-methylphenylamino)-1,2,4-triazine-6-carboxamide]
11 | ≤ 10 | ≤ 10 | ≤ 10 | ≤ 10 | C=CC(=O)N1CCC[C@@H](Nc2nnc(C(N)=O)c(Nc3ccc(C(C)(C)C#N)cc3)n2)C1 [Example C-61, (R)-3-(1-acryloylpiperidin-3-ylamino)-5-(4-(2-cyanopropan-2-yl)phenylamino)-1,2,4-triazine-6-carboxamide]
12 | 10 to 100 | ≤ 10 | ≤ 10 | ≤ 10 | C=CC(=O)N1CCC[C@@H](Nc2nnc(C(N)=O)c(Nc3ccc(I)cc3)n2)C1 [Example C-62, (R)-3-(1-acryloylpiperidin-3-ylamino)-5-(4-iodophenylamino)-1,2,4-triazine-6-carboxamide]
13 | ≤ 10 | ≤ 10 | ≤ 10 | ≤ 10 | C=CC(=O)N1CCC[C@@H](Nc2nnc(C(N)=O)c(Nc3ccc4ncsc4c3)n2)C1 [Example C-63, (R)-3-(1-acryloylpiperidin-3-ylamino)-5-(benzo[d]thiazol-6-ylamino)-1,2,4-triazine-6-carboxamide]
14 | ≤ 10 | ≤ 10 | ≤ 10 | ≤ 10 | C=CC(=O)N1CCC[C@@H](Nc2nnc(C(N)=O)c(Nc3ccc(Cn4cncn4)cc3)n2)C1 [Example C-64, (R)-5-(4-((1H-1,2,4-triazol-1-yl)methyl)phenyl-amino)-3-(1-acryloylpiperidin-3-ylamino)-1,2,4-triazine-6-carboxamide]
15 | 10 to 100 | ≤ 10 | 10 to 100 | ≤ 10 | C=CC(=O)N1CCC[C@@H](Nc2nnc(C(N)=O)c(Nc3ccc(CN(C(=O)OCc4ccccc4)[C@@H](C)C(C)(C)C)cc3)n2)C1 [Example C-72, benzyl 4-(3-((R)-1-acryloylpiperidin-3-ylamino)-6-carbamoyl-1,2,4-triazin-5-ylamino)benzyl((S)-3,3-dimethylbutan-2-yl)carbamate]
16 | 10 to 100 | ≤ 10 | ≤ 10 | ≤ 10 | C=CC(=O)N1CCC[C@@H](Nc2nnc(C(N)=O)c(Nc3cccc(-c4ncco4)c3)n2)C1 [Example C-79, (R)-3-(1-acryloylpiperidin-3-ylamino)-5-(3-(oxazol-2-yl)phenylamino)-1,2,4-triazine-6-carboxamide]
17 | ≤ 10 | ≤ 10 | ≤ 10 | ≤ 10 | C=CC(=O)N1CCC[C@@H](Nc2nnc(C(N)=O)c(Nc3ccc4c(cnn4CC)c3)n2)C1 [Example C-80, (R)-3-(1-acryloylpiperidin-3-ylamino)-5-(1-ethyl-1H-indazol-5-ylamino)-1,2,4-triazine-6-carboxamide]
18 | 10 to 100 | ≤ 10 | ≤ 10 | ≤ 10 | C=CC(=O)N1CCC[C@@H](Nc2nnc(C(N)=O)c(Nc3ccc(-n4cncn4)cc3)n2)C1 [Example C-83, (R)-5-(4-(1H-1,2,4-triazol-1-yl)phenylamino)-3-(1-acryloylpiperidin-3-ylamino)-1,2,4-triazine-6-carboxamide]
